This assay has as its target human PDE4D catalytic domain (UniProt no. Q08499) (Homo sapiens (Human), UniProt Q08499). Kind of assay: PDE4 assay (TR-FRET, FAM-cAMP cleavage). It is filed as biochemical. The note with it: human PDE4D catalytic domain; molar concentration giving 50% inhibition of substrate cleavage; read-out: PDE4 IC50 range. The method, then: The human PDE4D catalytic domain (UniProt no. Q08499 [[…]]) was incubated with a mixture of non-labelled cAMP (cyclic adenosine monophosphate) and fluorescein amidite (FAM) conjugated cAMP and titrated test or reference compound. Following brief incubation the enzymatic reaction was stopped by addition of binding buffer containing nanoparticles with immobilized trivalent metal ions capable of binding 1) AMP phospho groups and 2) terbium (Tb) donor fluorophores. Subsequent excitation of the Tb donor triggers time-resolved FRET to adjacent FAM acceptor molecules resulting in light emission. In the presence of a PDE4 inhibitor, AMP generation was reduced resulting in a lower fluorescence signal. The cAMP phosphodiester is not bound by the detection system.
The results were calculated as the molar concentrations resulting in 50% inhibition of the substrate cleavage compared to controls samples, and are expressed as a range of IC50 (nM).
human PDE4D catalytic domain, sequence (Q08499 380-740 limits assumed): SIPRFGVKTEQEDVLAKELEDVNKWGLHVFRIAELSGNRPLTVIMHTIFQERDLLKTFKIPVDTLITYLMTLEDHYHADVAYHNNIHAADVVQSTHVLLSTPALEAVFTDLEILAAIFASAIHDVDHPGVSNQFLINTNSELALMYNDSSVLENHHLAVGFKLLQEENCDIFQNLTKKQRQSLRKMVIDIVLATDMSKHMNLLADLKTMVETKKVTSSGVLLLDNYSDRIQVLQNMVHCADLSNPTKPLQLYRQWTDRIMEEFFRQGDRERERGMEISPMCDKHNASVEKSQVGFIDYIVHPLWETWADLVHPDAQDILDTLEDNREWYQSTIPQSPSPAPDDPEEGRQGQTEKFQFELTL
Broadly, the IC50 is the concentration that inhibits the measured activity by half. As to `CCc1nn(CCCOC(=O)c2ccc(C)cc2)c2c1C(=O)NCC1(CCOCC1)C2` [Example 1, 3-(3-Ethyl-4-oxo-spiro[6,8-dihydro-5H-pyrazolo[4,3-c]azepine-7,4′-tetrahydropyran]-1-yl)propyl 4-methylbenzoate], the IC50 is below 100 nM. Under `CCc1ccc(C(=O)OCCCn2nc(CC)c3c2CC2(CCOCC2)CNC3=O)cc1` [Example 2, 3-(3-Ethyl-4-oxo-spiro[6,8-dihydro-5H-pyrazolo[4,3-c]azepine-7,4′-tetrahydropyran]-1-yl)propyl 4-ethylbenzoate] stands below 100 nM.

With `CCc1nn(C[C@@H](C)COC(=O)c2ccc(S(=O)(=O)NC)cc2)c2c1C(=O)NCC1(CCOCC1)C2` [Example 3, [(2R)-3-(3-Ethyl-4-oxo-spiro[6,8-dihydro-5H-pyrazolo[4,3-c]azepine-7,4′-tetrahydro-pyran]-1-yl)-2-methyl-propyl] 4-(methylsulfamoyl)benzoate], the IC50 was below 100 nM. To `CCc1nn(C[C@@H](C)COC(=O)c2ccc(S(=O)(=O)N(C)C)cc2)c2c1C(=O)NCC1(CCOCC1)C2` [Example 4, [(2R)-3-(3-Ethyl-4-oxo-spiro[6,8-dihydro-5H-pyrazolo[4,3-c]azepine-7,4′-tetrahydro-pyran]-1-yl)-2-methyl-propyl] 4-(dimethylsulfamoyl)benzoate] belongs below 100 nM; to `CCc1nn(C[C@@H](C)COC(=O)c2ccc(S(C)(=O)=O)cc2)c2c1C(=O)NCC1(CCOCC1)C2` [Example 5, [(2R)-3-(3-ethyl-4-oxo-spiro[6,8-dihydro-5H-pyrazolo[4,3-c]azepine-7,4′-tetrahydro-pyran]-1-yl)-2-methyl-propyl] 4-methylsulfonylbenzoate], below 100 nM.

Take `CCc1nn(CCCOC(C)=O)c2c1C(=O)NCC1(CCOCC1)C2` [Example 6, 3-(3-ethyl-4-oxo-spiro[6,8-dihydro-5H-pyrazolo[4,3-c]azepine-7,4′-tetrahydropyran]-1-yl)propyl acetate]: the IC50 was in the range of 100 to 500 nM. As for `CCc1nn(CCCOC(=O)C(C)C)c2c1C(=O)NCC1(CCOCC1)C2` [Example 7, 3-(3-ethyl-4-oxo-spiro[6,8-dihydro-5H-pyrazolo[4,3-c]azepine-7,4′-tetrahydropyran]-1-yl)propyl 2-methylpropanoate], the half-maximal inhibitory concentration (IC50) lay in the range of 100 to 500 nM.

`CCc1nn(CCCOC(=O)CCOC)c2c1C(=O)NCC1(CCOCC1)C2` [Example 8, 3-(3-ethyl-4-oxo-spiro[6,8-dihydro-5H-pyrazolo[4,3-c]azepine-7,4′-tetrahydropyran]-1-yl)propyl 3-methoxypropanoate]: the IC50 was above 500 nM. `CCc1nn(CCCOC(=O)C2CCCC2)c2c1C(=O)NCC1(CCOCC1)C2` [Example 9, 3-(3-ethyl-4-oxo-spiro[6,8-dihydro-5H-pyrazolo[4,3-c]azepine-7,4′-tetrahydropyran]-1-yl)propyl cyclopentanecarboxylate]: the IC50 is below 100 nM.

In the case of `CCc1nn(CCCOC(=O)C2CC(O)C2)c2c1C(=O)NCC1(CCOCC1)C2` (stereo not shown) [Example 10, 3-(3-ethyl-4-oxo-spiro[6,8-dihydro-5H-pyrazolo[4,3-c]azepine-7,4′-tetrahydropyran]-1-yl)propyl 3-hydroxycyclobutane-carboxylate], the half-inhibitory concentration (IC50) is 100 to 500 nM. To `CCc1nn(CCCOC(=O)C(CC)CC)c2c1C(=O)NCC1(CCOCC1)C2` [Example 11, 3-(3-ethyl-4-oxo-spiro[6,8-dihydro-5H-pyrazolo[4,3-c]azepine-7,4′-tetrahydropyran]-1-yl)propyl 2-ethylbutanoate] belongs below 100 nM. With `CCc1nn(CCCOC(=O)COC(C)C)c2c1C(=O)NCC1(CCOCC1)C2` [Example 12, 3-(3-ethyl-4-oxo-spiro[6,8-dihydro-5H-pyrazolo[4,3-c]azepine-7,4′-tetrahydropyran]-1-yl)propyl 2-isopropoxyacetate], the IC50 is above 500 nM. Under `CCc1nn(CCCOC(=O)CCSC)c2c1C(=O)NCC1(CCOCC1)C2` [Example 13, 3-(3-ethyl-4-oxo-spiro[6,8-dihydro-5H-pyrazolo[4,3-c]azepine-7,4′-tetrahydropyran]-l-yl)propyl 3-methylsulfanylpropanoate] stands 100 to 500 nM.

Values taken from patent US10906915B2, “Substituted pyrazoloazepin-4-ones and their use as phosphodiesterase inhibitors” (LEO Pharma A/S, priority 2016, dated 2021).
